Measurements published in patent US8110193B2, “Methods for conditioning a subject for hematopoietic cell transplantation” (City of Hope, priority 2007, dated 2012).

What was measured:
[1] = tested on: IL-2, IFN-γ, TNF-α, and IL-6; experiment: Serum cytokines after anti-CD3 injection (cytokine storm); format: in vivo, mouse (BALB/c)
Description: (§1) C. […] There were seven mice in each group.

[2] = tested on: IL-2, IFN-γ, TNF-α, and IL-6; experiment: Cytokines in culture supernatant of anti-CD3-stimulated spleen cells (ELISA); format: cell-based, mouse (BALB/c); conditions: 24, 48, 72 hours
Protocol: as §1
One of the side effects of anti-CD3-conditioning is the cytokine storm triggered by anti-CD3 activation of T cells. […] After anti-CD3-stimulation, IL-2 concentration peaked at 48 hours, and IFN-γ, TNF-α, and IL-6 all peaked at 72 hours after culture.

host T cells = experiment: Apoptosis and yield of residual host T cells in spleen of conditioned mice; format: in vivo, mouse (BALB/c); conditions: low-dose (40 or 100 μg/g) SAHA co-injected with anti-CD3
[3] = Body temperature and tolerability after anti-CD3 injection

SMILES: O=C(CCCCCCC(=O)Nc1ccccc1)NO [SAHA, suberoylanilide hydroxamic acid]
- reduction of serum IL-2, IFN-γ, TNF-α, IL-6 at peak time points vs anti-CD3 alone ([1]; SAHA 40 μg/g co-injected with anti-CD3 5 μg/g): more than 2 fold
- serum cytokine reduction compared to SAHA 40 μg/g ([1]; SAHA 200 μg/g co-injected with anti-CD3, data not shown): reductions in serum cytokine levels that were similar
- IL-2, IFN-γ, TNF-α, IL-6 production in culture ([2]; 0.5 μM SAHA): reduced cytokine production significantly at all time points
- IL-2, IFN-γ, TNF-α, IL-6 production in culture ([2]; 1 μM SAHA): nearly undetectable
- apoptosis of host T cells and yield of residual live T cells in spleen (host T cells): did not significantly increase apoptosis of host T cells or reduce the yield of residual live T cells
- hypothermia after anti-CD3 injection ([3]; SAHA 40 μg/g co-injected with anti-CD3): significantly reduced hypothermia
- adverse signs ([3]; SAHA 200 μg/g co-injected with anti-CD3): severe diarrhea
- mice that died ([3]; SAHA 200 μg/g co-injected, five days after anti-CD3-conditioning): 30%
